According to patent EP0428854A2, “Process for the preparation of 4-(4-isobutylphenyl)-butyraldehyde” (BOEHRINGER INGELHEIM KG, priority 1989, dated 1991):

Target: T1, PAF-Rezeptor (Homo sapiens, UniProt P25105)
T1 construct: endogenous in cells; host or cells: intact human platelets from blood of healthy donors, purified on Sepharose CL-2B
Assay: [3H]PAF receptor binding on vital human platelets (competitive displacement of the radioligand)
Conditions: potency of the (-)-enantiomer relative to the other enantiomer, [³H]PAF binding
Source text: Überraschenderweise wurde gefunden, daß das (-)-Enantiomere 40-mal wirkungsstärker ist. Die pharmakologische Wirkung wurde anhand des nachfolgenden Experiments bestimmt: [³H]PAF-Rezeptor-Bindung an vitalen humanen Blutplättchen
Bestimmt wird die konkurrierende Wechselwirkung von Prüfsubstanzen (hier PAF-Antagonisten) mit der bekannten Wechselwirkung des Radioliganden [³H]PAF zum gleichen Rezeptor. Die Bindungsstudien wurden an vitalem menschlichen Thrombozyten vorgenommen. Blutproben von gesunden Spendern wurden mit ACD-Puffer verdünnt und zentrifugiert (15 Min., 160 x g). Das blättchenreiche Plasma wird durch Chromatographie an Sepharose CL-2B [Zum Eluieren: HEPES-Puffer, pH 7,4 20°C] gereinigt.
Definierte Mengen [z.B. 800 µl] der Blättchensuspension wurden 90 Min. bei Raumtemperatur inkubiert, d.h. vermischt mit: • a) einer […] [³H]PAF-Lösung, verdünnt mit Puffer. • b) mit einer 30 pmolaren [³H] PAF-Lösung, die gleichzeitig eine µmolare (nicht markierte) PAF-Lösung enthält, • c) mit der 30 pmolaren [³H]PAF-Lösung und den Lösungen der Prüfsubstanzen (unterschiedliche Konzentrationen) • a) Dient zur Ermittlung der totalen Bindung, • b) dient zur Ermittlung der unspezifischen Bindung.
Die Reaktion wurde durch Vakuumfiltration abgestoppt. Die Filter mit den Blutplättchen werden mit Szintilationsflüssigkeit versetzt und die verbliebene Radioaktivität in einem Counter gemessen. […]

T1 sequence (P25105 whole entry): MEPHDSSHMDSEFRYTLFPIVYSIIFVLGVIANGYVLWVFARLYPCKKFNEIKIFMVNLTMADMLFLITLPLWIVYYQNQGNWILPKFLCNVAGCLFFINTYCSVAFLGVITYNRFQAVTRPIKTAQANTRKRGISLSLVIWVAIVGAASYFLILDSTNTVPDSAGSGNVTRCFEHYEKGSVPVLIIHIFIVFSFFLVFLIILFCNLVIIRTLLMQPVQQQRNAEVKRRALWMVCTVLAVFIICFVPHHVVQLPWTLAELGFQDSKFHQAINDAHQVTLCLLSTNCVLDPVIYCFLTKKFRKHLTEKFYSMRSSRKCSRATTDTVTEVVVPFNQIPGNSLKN

## Cc1nnc2n1-c1sc(CCc3ccc(CC(C)C)cc3)cc1C(c1ccccc1Cl)=NC2C (single isomer, unassigned; (-)) [(-)Enantiomer, (-)-4-(2-Chlorphenyl)-2-[2-(4-isobutylphenyl)ethyl]-6,9-dimethyl-6H-thieno[3,2-f][1,2,4]triazolo[4,3-a][1,4]diazepin]
  wirkungsstärker: 40 mal
